Data published in PubChem BioAssay (NCI).
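Compound exposure: 48 hours, 5 concentrations, 96-well plates. TGI is the concentration that stops growth completely.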

Experiments:
Test in all cases: growth of human tumour cells (NCI), 48 h
BT-549 breast = tested on: BT-549 breast
OVCAR-5 ovarian = tested on: OVCAR-5 ovarian
OVCAR-8 ovarian = tested on: OVCAR-8 ovarian
MCF7 breast = tested on: MCF7 breast
UO-31 renal = tested on: UO-31 renal
HL-60(TB) leukemia = tested on: HL-60(TB) leukemia
CCRF-CEM leukemia = tested on: CCRF-CEM leukemia
UACC-257 melanoma = tested on: UACC-257 melanoma
SF-268 CNS = tested on: SF-268 CNS
PC-3 prostate = tested on: PC-3 prostate
HOP-62 NSCLC = tested on: HOP-62 NSCLC
SNB-19 CNS = tested on: SNB-19 CNS
OVCAR-4 ovarian = tested on: OVCAR-4 ovarian
NCI/ADR-RES ovarian = tested on: NCI/ADR-RES ovarian
KM12 colon = tested on: KM12 colon
EKVX NSCLC = tested on: EKVX NSCLC
COLO 205 colon = tested on: COLO 205 colon
M14 melanoma = tested on: M14 melanoma
SK-OV-3 ovarian = tested on: SK-OV-3 ovarian
SK-MEL-28 melanoma = tested on: SK-MEL-28 melanoma
U251 CNS = tested on: U251 CNS
NCI-H23 lung = tested on: NCI-H23 lung
MDA-MB-435 = tested on: MDA-MB-435
SK-MEL-5 melanoma = tested on: SK-MEL-5 melanoma
SN12C renal = tested on: SN12C renal
MDA-MB-231 breast = tested on: MDA-MB-231 breast
HCT-116 colon = tested on: HCT-116 colon
HCC-2998 colon = tested on: HCC-2998 colon
MOLT-4 leukemia = tested on: MOLT-4 leukemia
DU-145 prostate = tested on: DU-145 prostate
SW-620 colon = tested on: SW-620 colon
IGROV1 ovarian = tested on: IGROV1 ovarian
SF-295 CNS = tested on: SF-295 CNS
NCI-H460 lung = tested on: NCI-H460 lung
786-0 renal = tested on: 786-0 renal
SNB-75 CNS = tested on: SNB-75 CNS
HOP-92 NSCLC = tested on: HOP-92 NSCLC
SF-539 CNS = tested on: SF-539 CNS
UACC-62 melanoma = tested on: UACC-62 melanoma
LOX IMVI melanoma = tested on: LOX IMVI melanoma
A549 NSCLC = tested on: A549 NSCLC
NCI-H522 lung = tested on: NCI-H522 lung
HCT-15 colon = tested on: HCT-15 colon
HT29 colon = tested on: HT29 colon
OVCAR-3 ovarian = tested on: OVCAR-3 ovarian
T-47D breast = tested on: T-47D breast
TK-10 renal = tested on: TK-10 renal
K-562 leukemia = tested on: K-562 leukemia
SR leukemia = tested on: SR leukemia

Measured: TGI

c1cc2sc1CSCCSCCSC2
> 100 µM: all assays above
